Experimental data published in patent EP1857450A1, “Novel enantiomeric compounds for treatment of cardiac arrhythmias and methods of use” (Aryx Therapeutics, priority 1999, dated 2001).

Experiments:
anesthetized rats = experiment: Anti-arrhythmic activity in anesthetized rats (benzene/adrenaline challenge, EKG recording); type: in vivo, Male Sprague-Dawley rats; conditions: for time at which activity against VPB is lost: drug administration time 0 to 120 min; for PR interval / QRS interval / QT interval / Heart rate (beats/minute) / Inhibition of tachycardia / Number of VPB / Inhibition of VPB: isolated enantiomer as compared to the respective racemate; for PR interval / QRS interval / QT interval: EKG; for Number of VPB / Inhibition of VPB: benzene/adrenaline challenge; for Inhibition of VPB: 4 mg/kg i.v. then 12 mg/kg/h for 2 hours; for activity against VPB at the end of the washout period: time 180 min; for inhibition of the formation of ventricular premature beats (VPB): whole period of drug administration (time 0 to 120 min); for protection against tachyarrhythmia (increased heart rate) produced by adrenaline: potency: drug administered from time 0 to time 120 minutes
Experimental: Male Sprague-Dawley rats with body weights of 410 ± 30 g (Harlan Sprague Dawley Inc., Indianapolis, IN), were anesthetized with sodium pentobarbital (50 mg/kg i.p. - Butler Co., Columbus, OH). The skin from the neck area was removed and the jugular veins on both sides were cleared of connective tissue. Both jugular veins and the left carotid artery were isolated, and the latter tied up cranially with a surgical silk (ETHICON 4-0, Ethicon Inc., Australia). A plastic catheter ([…] 19ga, Vecton Dickinson, Sandy, UT), filled with a solution containing 10% sodium heparin (Elkins-Sinn Inc., Cherry Hill, NJ) in normal saline (100 U/ml sodium heparin), was introduced into the artery and fixed with surgical silk.
The catheter was connected to a pressure transducer (OHMEDA P23-XL, Ohmeda Medical Devices Division Inc., Madison, WI), filled with the same heparinized 0.9% NaCl solution, to register beat-to-beat arterial pressure. Needle electrodes were inserted s.c., and together with the pressure transducer, were joined to a GOULD TA 2000 recorder. Leads II, aVF and intraarterial blood pressure were monitored simultaneously throughout the experiments and recorded at certain intervals at 50 and 200 mm/sec paper speed.
The surgery was completed with an incision on the trachea where a short plastic tubing was placed and the animal was connected to a rodent-model ventilator (HARVARD Model 683, Harvard Apparatus, Inc., Holliston, MA). The animals were ventilated in a controlled way, depending on their spontaneous breathing frequency (55-75/min).
Drug administrations were carried out through i.v. catheters (TERUMO 24 GA*3/4", Terumo Medical Corp., Elkton, MD) inserted into both jugular veins. The left side was used for drug infusions by means of a syringe pump (SAGE INSTRUMENTS, Model 341B, Orion Res. Inc., Boston, MA), and the right side was used for adrenaline injections. The experiments were started after at least 15 minutes of stabilization. Benzene/adrenaline challenges were performed as follows: the respirator inlet was connected to a 50-ml bubbler half-full with benzene (Fisher Scientific, Fair Lawn, NJ) so that the inspired air was saturated with benzene vapor. The animal was ventilated with benzene vapor for two minutes. The tidal volume was typically 1 ml/100g of animal. During the last 30 seconds of benzene ventilation, 10 µg/kg adrenaline solution (in 0.9% NaCl) was injected into the right jugular vein. […] These arrhythmias could be elicited repeatedly. After three control VTs (at -30, -20 and -10 minutes), the test compounds were injected slowly during 30 seconds at a dose of 4 mg/kg i.v., immediately followed by a slow infusion of 12 mg/kg/h for 2 hours. The flow rate during the infusion period was 1 ml/h.
There were 5 rats per test compound and each animal served as its own control. The ability of the different drugs to suppress arrhythmias was tested against repeated benzene/adrenaline challenges at 5, 15, 30, 45, 60, 90, 120 (end of drug infusion), 135, 150, 165 and 180 minutes after the i.v. bolus injection. The amplitudes of the systolic arterial pressure and diastolic arterial pressure […] with the help of a pressure-amplitude calibration curve. Heart rate, number of ventricular complexes during the occurrence of VTs and VPBs, and certain ECG parameters (PR, QRS, QT durations and RR cycle lengths in msec) were also recorded and measured manually. At each time-point, 3-5 cycles were measured and the average values were entered into EXCEL Windows 97. The average and standard deviation for the five experimental animals per compound were calculated.

[1] = type: in vitro ADME; conditions: human
Experimental: Venous blood (60 ml) was collected in heparinized 15-ml Vacutainer® tubes from the forearm of five human volunteers. Each tube contained 1,000 units of heparin sodium salt. The blood was immediately centrifuged at 2,000 g for 10 minutes and the plasma was collected. Immediately after collection, the plasma was divided into 2-ml aliquots in borosilicate glass tubes (5-ml capacity) capped with a plastic stopper. The tubes were then equilibrated in a 37°C-water bath for at least 15 minutes before the test samples were added.
Stock solutions were prepared by dissolving 25 µmoles (about 18 mg) of each of the test compounds in 10 ml of deionized water. To each of the glass tubes containing 2 ml of fresh plasma, equilibrated at 37°C, was added 40 µl of the stock solutions (one test compound per tube). The plasma/stock solutions were then mixed. Samples (250 µl) were collected at time 0 (immediately after mixing test compounds in plasma) and then at 30, 60, 90, 120, 180, 240, and 300 minutes. The test tubes were capped, to avoid concentration due to evaporation, and left in the 37°C bath during the entire experiment. Each aliquot was immediately introduced into a 1.5-ml microfuge tube containing 20 µl of a 0.01% solution of diethyl paranitrophenylphosphate (paraoxon) in ethanol in order to inhibit esterase activity. The tubes were then capped and vortexed, then kept at -20°C until analysis. The samples were thawed and mixed with 750 µl of a 0.1 % solution of trifluoroacetic acid (TFA) in acetonitrile, vortexed for thorough mixing, and then centrifuged at 12,000 g for 15 minutes. The supernatant was collected for injection in the HPLC system.
The HPLC mobile phase consisted of acetonitrile and water containing 0.1% TFA and 400 mg/L benzyltriethylammonium chloride (BTEAC) in the following proportions and flow rates: 85% acetonitrile and 15% water at 2.0 ml/min. The detection wavelength was set at 242 nm, and the injected volume was 100 µL. The HPLC peaks were recorded, and the integrated values were plotted against time using the SIGMAPLOT software version 4.0 for WINDOWS. The resulting curves were fitted to a first-order exponential decay equation from which hydrolysis half-lives were calculated.

Row | Structure (SMILES) | time at which activity against VPB is lost (anesthetized rats; benzene vapors and adrenaline) [min] | PR interval (anesthetized rats) | QRS interval (anesthetized rats) | QT interval (anesthetized rats) | Heart rate (beats/minute) (anesthetized rats; adrenaline injection) | Inhibition of tachycardia (anesthetized rats; adrenaline injection) | Number of VPB (anesthetized rats) | Inhibition of VPB (anesthetized rats) | activity against VPB at the end of the washout period (anesthetized rats) | Plasma half-life [1] [h] | duration of effect on tachycardia (anesthetized rats; adrenaline injection) | inhibition of the formation of ventricular premature beats (VPB) (anesthetized rats; benzene vapors and adrenaline) | protection against tachyarrhythmia (increased heart rate) produced by adrenaline: potency (anesthetized rats) | effects on the PR segment of the EKG recording (Class-IV activity): potency (anesthetized rats; rat, in vivo) | effects on the QT segment of the EKG recording (Class-III properties): potency (anesthetized rats; rat, in vivo) | activity against VPB of the racemate relative to the enantiomers (anesthetized rats; benzene vapors and adrenaline)
1 | CC[C@@H](C)OC(=O)Cc1oc2ccccc2c1C(=O)c1cc(I)c(OCCN(CC)CC)c(I)c1 [Compound R-2042, (R)-sec-Butyl 2-[3-(3,5-diiodo-4-(2-diethylaminoethyloxy)benzoyl)]benzofurane-acetate] | ~100 | shorter | no change | no change | lower | longer | lower | longer | completely inactive | 5.0 |  |  |  |  |  | 
2 | CCN(CC)CCOc1c(I)cc(C(=O)c2c(CC(=O)O[C@H](C)C(C)C)oc3ccccc23)cc1I [Compound R-2055, (R)-(3-Methyl)-2butyl 2-[3-(3,5-diiodo-4-(2-diethylaminoethyloxy)benzoyl)]benzo-furaneacetate] |  | shorter | longer | no change | lower | longer | lower | longer | still retained part of its activity | 11.7 | longer-lasting effect than S-2055 | totally inhibited the formation of ventricular premature beats |  |  |  | 
3 | CC[C@H](C)OC(=O)Cc1oc2ccccc2c1C(=O)c1cc(I)c(OCCN(CC)CC)c(I)c1 [ATI-2042] |  |  |  |  |  |  |  |  |  |  |  |  | very good protection against this tachyarrhythmia |  |  | 
4 | CC[C@H](C)OC(=O)Cc1oc2ccccc2c1C(=O)c1cc(I)c(OCCN(CC)CC)c(I)c1 [Compound S-2042, (S)-sec-Butyl 2-[3-(3,5-diiodo-4-(2-diethylaminoethytoxy)benzoyl)]benzofurane-acetate] |  | longer | longer | longer | lower | longer | lower | longer | still retained part of its activity | 7.3 |  | totally inhibited the formation of ventricular premature beats | more potent and longer acting then R-2042 | much more potent than R-2042 and the racemate R,S-2042 | the most potent and the longest acting | 
5 | CC[C@H](C)OC(=O)Cc1oc2ccccc2c1C(=O)c1cc(I)c(OCCN(CC)CC)c(I)c1 [R,S-2042] |  |  |  |  |  |  |  |  |  |  |  |  | the least potent and shortest acting |  |  | even less active than either the R- or the S-isomer
6 | CCN(CC)CCOc1c(I)cc(C(=O)c2c(CC(=O)O[C@@H](C)C(C)C)oc3ccccc23)cc1I [Compound S-2055, (S) - (3 - Methyl) - 2 butyl 2-[3-(3,5-diiodo-4-(2-diethylaminoethyloacy)benzoyl)]benzo-furaneacetate] | ~40 | shorter | longer | no change | lower | longer | lower | longer | completely inactive | 8.8 |  |  |  |  |  | 
7 | CCN(CC)CCOc1c(I)cc(C(=O)c2c(CC(=O)OC(C)C(C)C)oc3ccccc23)cc1I (stereo not drawn) [ATI-2055] |  |  |  |  |  |  |  |  |  |  |  |  | inhibits the tachycardia |  |  | 
